Experimental data: patent publication US8389573B2, “Glycyrrhetinic acid derivatives” (Wellington Laboratories Inc., priority 2006, dated 2013)
Blank lines part the entries; values can stand above or below the compound they belong to.

Legend:
[1] = system: Sp1, Sp3 and Sp4 in liver; assay: Sp protein expression in non-target tissue (liver) of treated mice; assay type: in vivo; conditions: preliminary results
Excerpt: (i) Animal treatment: Male athymic nude mice are obtained from commercial sources and their use approved by the Institutional Animal Care and Use Committee. Ten animals are used for each treatment group and based on consultation with biostatisticians, this number is sufficient for determining statistical significance between treatment groups (41, 42). At least one AR-positive (LNCaP/22Rv1) and AR-negative (PC3/DU145) prostate cancer cell line is used in the xenograft study. Cells are harvested by exposure to trypsin and resuspended in serum-free Hanks' balanced salt solution (HBSS). […] In addition, Western blot analysis of Sp proteins, proapoptotic and antiangiogenic responses is determined on whole cell lysates from compound- and corn oil (vehicle)-treated tumors. Where possible (depending on the amount of protein extracted), the effects of the compound versus corn oil on expression of these proteins is quantitated and statistically analyzed. In addition, the effects of the compound on Sp protein expression in non-target tissue (e.g. liver and kidney) is determined. […] Immunostaining for Sp1, Sp3 and Sp4 and for angiogenic (VEGF, VEGFR1 and VEGFR2) and apoptotic (cleaved PARP, activated caspase 3, survivin and TUNEL) proteins/responses are determined as described above.

[2] = system: LNCaP cells; assay: Western blot analysis and DNA fragmentation assay in LNCaP cells; assay type: cell-based, human; conditions: 2.5 μM β-CDODA-Me, 24 hr
Experimental: Cell Proliferation and DNA Fragmentation Assays: LNCaP prostate cancer cells (2×10^4 per well) were added to 12-well plates and allowed to attach for 24 hr. The medium was then changed to DMEM/Ham's F-12 media containing 2.5% charcoal-stripped FBS, and either vehicle (DMSO) or the indicated C-DIMs were added. Fresh medium and indicated compounds were added every 48 hr, and cells were then trypsinized and counted after 2, 4, and 6 days using a Coulter Z1 cell counter (Beckman Coulter, Fullerton, Calif.). Each experiment was done in triplicate, and results are expressed as means±S.E. for each set of three experiments. The DNA fragmentation assay was performed using a BioVision Apoptotic DNA ladder extraction kit (BioVision, Mountain View, Calif.) according to the manufacturer's protocol.
Western Blot Analysis: Cells were seeded in DMEM:Ham's F-12 media containing 2.5% charcoal-stripped FBS for 24 hr and then treated with either the vehicle (DMSO) or the indicated compounds. Cells were collected by scraping in 150 μl high salt lysis buffer (50 mM HEPES, 0.5 M NaCl, 1.5 mM MgCl2, 1 mM EGTA, 10% (v/v) glycerol, 1% (v/v) Triton-X-100 and 5 μL/ml of Protease Inhibitor Cocktail (Sigma). The lysates were incubated on ice for 1 hr with intermittent vortexing followed by centrifugation at 20,000 g for 10 min at 4° C. Before electrophoresis, samples were boiled for 3 min at 100° C.; the amount of protein was determined and 60 μg protein applied per lane. Samples were subjected to SDS-PAGE on 10% gel at 120 V for 3 to 4 hr. Proteins were transferred on to polyvinylidene difluoride membrane (PVDF; Bio-Rad, Hercules, Calif.) at 0.9 amp for 90 min at 4° C. in 1× transfer buffer (48 mM Tris-HCl, 39 mM glycine, and 0.025% SDS). The membranes were blocked for 30 min with 5% TBST-Blotto (10 mM Tris-HCl, 150 mM NaCl (pH 8.0), 0.05% Triton X-100 and 5% non-fat dry milk) and incubated in fresh 5% TBST-Blotto with primary antibody overnight with gentle shaking at 4° C. After washing with TBST for 10 min, the PVDF membrane was incubated with secondary antibody (1:5000) in 5% TBST-Blotto for 2-3 hr. The membrane was washed with TBST for 10 min and incubated with 10 ml of chemiluminescence substrate (PerkinElmer Life Sciences) for 1.0 min and exposed to ImageTeK-H medical imaging film (Eastman American X-ray Supply, Inc.).

[3] = system: p21 promoter; assay: p21 promoter construct luciferase assay in LNCaP cells; assay type: cell-based; conditions: 10 μM PD98059
[4] = system: SW480 cells; assay: Western blot analysis in SW480 cells; assay type: cell-based, human; conditions: SW480, treatment for 3 days
Experimental: SW-480 and HT-29 (3×10^5) cells were seeded in six-well plates in DMEM/Ham's F-12 media containing 2.5% charcoal-stripped FBS for 24 h and then treated with either the vehicle (DMSO) or the indicated compounds. Whole-cell lysates were obtained using high-salt buffer [50 mM HEPES, 500 mM NaCl, 1.5 mM MgCl2, 1 mM EGTA, 10% glycerol, and 1% Triton X-100, pH 7.5, and 5 μl/ml Protease Inhibitor Cocktail (Sigma-Aldrich)]. Protein samples were incubated at 100° C. for 2 min, separated on 10% SDS-PAGE at 120 V for 3 to 4 h in 1× running buffer (25 mM Tris-base, 192 mM glycine, and 0.1% SDS, pH 8.3), and transferred to polyvinylidene difluoride membrane (PVDF; Bio-Rad, Hercules, Calif.) at […] for 16 h at 4° C. in 1× transfer buffer (48 mM Tris-HCl, 39 mM glycine, and 0.025% SDS). The PVDF membrane was blocked in 5% TBST-Blotto (10 mM Tris-HCl, 150 mM NaCl, pH 8.0, 0.05% Triton X-100, and 5% nonfat dry milk) with gentle shaking for 30 min and was incubated in fresh 5% TBST-Blotto with 1:1000 (for caveolin-1, p27, p21, cyclin D1, Grp78), 1:500 (for KLF4, NAG-1), 1:250 (for PARP), and 1:5000 (for β-actin) primary antibody overnight with gentle shaking at 4° C. After washing with TBST for 10 min, the PVDF membrane was incubated with secondary antibody (1:5000) in 5% TBST-Blotto for 90 min. The membrane was washed with TBST for 10 min, incubated with 10 ml of chemiluminescence substrate (PerkinElmer) for 1.0 min, and exposed to Kodak X-OMAT AR autoradiography film (Eastman Kodak, Rochester, N.Y.).

[5] = target: T1, PPARγ-coactivator interactions (Homo sapiens, UniProt P37231); conditions: SW480 cells, reference (22); cited from earlier work
T1 construct: expressed in transfected cells; host or cells: SW480 cells, transient transfection (LipofectAMINE)
T1 sequence (P37231 238-503 limits assumed): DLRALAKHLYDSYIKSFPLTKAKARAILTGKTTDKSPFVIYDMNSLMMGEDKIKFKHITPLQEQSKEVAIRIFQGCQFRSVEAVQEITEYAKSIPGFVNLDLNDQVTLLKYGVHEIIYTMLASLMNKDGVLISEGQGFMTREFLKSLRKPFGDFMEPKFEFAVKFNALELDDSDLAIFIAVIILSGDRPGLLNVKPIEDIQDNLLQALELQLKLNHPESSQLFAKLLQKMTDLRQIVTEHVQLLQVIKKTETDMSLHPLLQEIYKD

[6] = system: PPARγ; conditions: SW480 cells, previous studies (22); cited from earlier work

Sp1, Sp3 and Sp4 expression in liver [1]: unaffected
SMILES: COC(=O)[C@@]1(C)CCC2(C)CC[C@]3(C)C(=CC(=O)[C@@H]4C5(C)C=C(I)C(=O)C(C)(C)[C@@H]5CCC43C)C2C1 (stereo partly drawn) [β-IDODA-Me, Methyl 2-iodo-3,11-dioxo-18β-oleana-1,12-diene-30-oate]

SMILES: COc1cccc(-c2cc(=O)c3ccccc3o2)c1N [PD98059, reference compound]
effect of kinase inhibitor on induction of ATF-3 by β-CDODA-Me [2]: blocked induction
effect of kinase inhibitor on induction of NAG-1 by β-CDODA-Me [2]: inhibited induction
effect on β-CDODA-Me downregulation of cyclin D1 and induction of p21 [2]: partially blocked
effect on β-CDODA-Me-induced p21-luc(101) luciferase activity [3]: inhibited this response

SMILES: COC(=O)[C@]12CCC(C)(C)C[C@H]1[C@H]1C(=O)C=C3[C@@]4(C)C=C(C#N)C(=O)C(C)(C)[C@@H]4CC[C@@]3(C)[C@]1(C)CC2 [CDDO-Me]
caveolin-1 protein expression [4]: induce caveolin-1 protein
interactions between VP-PPARγ and GAL4-coactivator/corepressor chimeras (SRC1, SRC2, SRC3, PGC1, TRAP220, CARM1, SMRT) [5]: induced interactions
luciferase activity with GAL4-PPARγ/GAL4-Luc [6]: induced luciferase activity
